Marks after values point to notes of the source that are not given here.
Tests used:
Assay type in all cases: in vivo
Kunming mice [1] = test: Influence on hypnosis effect with pentobarbital sodium doses at the threshold (50 mg/kg i.p.); conditions: pentobarbital sodium 50 mg/kg i.p. 60 min later, x ± s, n = 10
Summary of the method: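 Pentobarbital sodium (0.3%, 50 mg/kg i.p.) injected 60 min after a single intragastric dose (25, 50, 100 mg/kg, 0.5% CMC-Na vehicle) in Kunming mice, 10 per group, sexes balanced. Onset and length of sleep (righting reflex lost over 1 min) analysed by ANOVA; sleeping incidence by χ2 test.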

Kunming mice [2] = test: Influence on hypnosis effect with pentobarbital sodium doses below the threshold (25 mg/kg i.p.); conditions: pentobarbital sodium 25 mg/kg i.p. 60 min later, sleep observed in 30 min, n = 10
Summary of the method: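 Percentage of mice sleeping within 30 min after subthreshold pentobarbital sodium (25 mg/kg i.p.), defined by loss of righting reflex over 1 min, analysed by χ2. Compound in 0.5% CMC-Na given intragastrically at 25/50/100 mg/kg 60 min before; groups of 10 Kunming mice, both sexes.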

Kunming mice [3] = test: Influence on autonomic activity of normal mice (ZIL-2 mice autonomic activity meter, counts within 10 min); conditions: intragastric, x ± s, n = 10; for Times of activities in 1 h after drug administration/10 min: 1 h after administration; for Times of activities in 2 h after drug administration/10 min: 2 h after administration; for Times of activities in 24 h after drug administration/10 min: 24 h after administration
Summary of the method: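 Activity counts during a 10-min window were taken at 1, 2 and 24 h after dosing in groups of 10 mixed-sex Kunming mice. Compounds were given in 0.5% CMC-Na at 25, 50 or 100 mg/kg. Statistics used Levene's homogeneity test, ANOVA and Dunnett's multiple comparisons.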

[4] = 25 mg/kg intragastric single dose
[5] = 50 mg/kg intragastric single dose
[6] = 100 mg/kg intragastric single dose
[7] = test drug 25 mg/kg intragastric single dose
[8] = test drug 50 mg/kg intragastric single dose
[9] = test drug 100 mg/kg intragastric single dose

Row | Compound | duration of sleep (Kunming mice [1]; [4]) [min] | time to sleep (Kunming mice [1]; [4]) [min] | duration of sleep (Kunming mice [1]; [5]) [min] | time to sleep (Kunming mice [1]; [5]) [min] | duration of sleep (Kunming mice [1]; [6]) [min] | time to sleep (Kunming mice [1]; [6]) [min] | Number of sleeping animals (Kunming mice [2]; [7]) | rate of sleeping (%) (Kunming mice [2]; [7]) | Number of sleeping animals (Kunming mice [2]; [8]) | rate of sleeping (%) (Kunming mice [2]; [8]) | Number of sleeping animals (Kunming mice [2]; [9]) | rate of sleeping (%) (Kunming mice [2]; [9]) | Times of activities in 1 h after drug administration/10 min (Kunming mice [3]; 25 mg/kg) | Times of activities in 2 h after drug administration/10 min (Kunming mice [3]; 25 mg/kg) | Times of activities in 24 h after drug administration/10 min (Kunming mice [3]; 25 mg/kg) | Times of activities in 1 h after drug administration/10 min (Kunming mice [3]; 50 mg/kg) | Times of activities in 2 h after drug administration/10 min (Kunming mice [3]; 50 mg/kg) | Times of activities in 24 h after drug administration/10 min (Kunming mice [3]; 50 mg/kg) | Times of activities in 1 h after drug administration/10 min (Kunming mice [3]; 100 mg/kg) | Times of activities in 2 h after drug administration/10 min (Kunming mice [3]; 100 mg/kg) | other results
1 | N#Cc1cc(-c2cc(=O)c3c(N)cc(F)cc3o2)ccc1O [Example 37] | 30.27 ± 22.71 | 4.99 ± 1.97 | 40.03 ± 20.58 | 3.98 ± 1.46 | 57.51 ± 25.63 | 3.88 ± 1.43 | 3 | 30% | 6 | 60** % | 7 | 70** % | 321.4 ± 62.4 /10 min | 288.0 ± 38.9 /10 min | 335.3 ± 65.2 /10 min | 279.7 ± 46.3 /10 min | 259.5 ± 46.5 /10 min | 333.8 ± 87.8 /10 min | 277.3 ± 45.7 /10 min | 222.8 ± 43.2 /10 min | Times of activities in 24 h after drug administration/10 min (Kunming mice [3]; 100 mg/kg): 317.8 ± 62.3 /10 min
2 | COc1cc(OC)cc(C2CC(=O)c3c(OC)cc(OC)cc3O2)c1 (stereo not drawn) [Example 49] | 37.90 ± 13.18 | 4.59 ± 1.55 | 40.75 ± 23.05 | 3.69 ± 1.32 | 57.65 ± 17.87 | 3.38 ± 1.29 | 4 | 40* % | 6 | 60** % | 7 | 70** % | 305.2 ± 78.7 /10 min | 299.8 ± 94.1 /10 min | 281.4 ± 94.3 /10 min | 267.9 ± 21.5 /10 min | 246.6 ± 13.9 /10 min | 274.2 ± 34.8 /10 min | 179.9 ± 35.9 /10 min | 170.5 ± 34.1 /10 min | Times of activities in 24 h after drug administration/10 min (Kunming mice [3]; 100 mg/kg): 286.1 ± 12.7 /10 min
3 | COc1ccc(-c2cc(=O)c3c(O)cc(OC)c(OC)c3o2)c(OC)c1OC [Example 9, 5-hydroxyl-7,8,2′,3′,4′-penta methoxyl-flavone] | 49.14 ± 16.71 | 3.31 ± 1.81 | 72.31 ± 21.42 | 2.91 ± 1.52 | 85.16 ± 21.97 | 2.12 ± 1.12 | 6 | 60** % | 7 | 70** % | 8 | 80*** % | 258.4 ± 60.2 /10 min | 241.1 ± 34.1 /10 min | 314.2 ± 67.9 /10 min | 183.5 ± 45.9 /10 min | 194.3 ± 45.1 /10 min | 317.2 ± 80.9 /10 min | 129.0 ± 40.2 /10 min | 126.3 ± 39.8 /10 min | Times of activities in 24 h after drug administration/10 min (Kunming mice [3]; 100 mg/kg): 323.5 ± 62.4 /10 min
4 | CC=Cc1cc(-c2cc(=O)c3c(CCCCC)cc(C(=O)O)cc3o2)cc(C(=O)O)c1C#N [Example 26] | 23.01 ± 25.99 | 5.38 ± 2.22 | 28.69 ± 26.56 | 5.12 ± 2.32 | 65.28 ± 46.29 | 3.24 ± 1.16 | 4 | 40* % | 5 | 50** % | 7 | 70** % | 310.7 ± 59.5 /10 min | 279.0 ± 32.2 /10 min | 313.5 ± 68.8 /10 min | 284.7 ± 46.1 /10 min | 267.1 ± 43.5 /10 min | 314.1 ± 82.3 /10 min | 263.6 ± 42.4 /10 min | 245.6 ± 40.8 /10 min | Times of activities in 24 h after drug administration/10 min (Kunming mice [3]; 100 mg/kg): 322.6 ± 61.2 /10 min
5 | COc1ccc(C2CC(=O)c3cc(CCS(=O)(=O)O)c(C4CCNC4)c(N)c3O2)cc1SC#N (stereo not drawn) [Example 55] | 37.98 ± 13.71 | 4.03 ± 1.97 | 58.53 ± 11.96 | 3.52 ± 2.22 | 65.94 ± 14.95 | 3.21 ± 2.01 | 5 | 50** % | 6 | 60** % | 9 | 90*** % | 232.5 ± 66.1 /10 min | 229.8 ± 75.0 /10 min | 295.2 ± 89.3 /10 min | 138.3 ± 67.6 /10 min | 135.6 ± 69.2 /10 min | 297.5 ± 81.0 /10 min | 110.8 ± 55.7 /10 min | 103.8 ± 60.9 /10 min | Times of activities in 24 h after drug administration/10 min (Kunming mice [3]; 100 mg/kg): 289.8 ± 89.7 /10 min
6 | COc1cc(-c2cc(=O)c3c(OC)c(OC)c(OC)c(OC)c3o2)cc(OC)c1OC [Example 15, 5,6,7,8,3′,4′,5′-heptamethoxyl-flavone] | 39.93 ± 15.22 | 4.31 ± 1.65 | 51.53 ± 21.35 | 3.53 ± 1.22 | 58.25 ± 21.48 | 3.29 ± 1.58 | 3 | 30% | 6 | 60** % | 8 | 80*** % | 287.1 ± 39.1 /10 min | 255.1 ± 42.9 /10 min | 308.5 ± 75.2 /10 min | 254.7 ± 41.2 /10 min | 239.9 ± 42.6 /10 min | 317.4 ± 95.6 /10 min | 179.6 ± 44.3 /10 min | 152.5 ± 36.9 /10 min | Times of activities in 24 h after drug administration/10 min (Kunming mice [3]; 100 mg/kg): 287.8 ± 89.1 /10 min
7 | COc1cc(OC)c2c(=O)cc(-c3ccccc3O)oc2c1OC [Example 3, 2′-hydroxyl-5,7,8-trimethoxyl-flavone] | 39.65 ± 18.32 | 4.41 ± 1.43 | 56.76 ± 24.86 | 3.90 ± 1.93 | 59.76 ± 25.75 | 3.86 ± 1.22 | 3 | 30% | 4 | 40* % | 6 | 60** % | 283.4 ± 45.8 /10 min | 264.7 ± 46.1 /10 min | 305.8 ± 80.9 /10 min | 236.2 ± 41.5 /10 min | 246.3 ± 49.1 /10 min | 298.8 ± 71.0 /10 min | 180.5 ± 35.3 /10 min | 174.7 ± 40.5 /10 min | Times of activities in 24 h after drug administration/10 min (Kunming mice [3]; 100 mg/kg): 286.9 ± 90.4 /10 min

From US9669003B2, “Use of flavone and flavanone derivatives in preparation of sedative and hypnotic drugs” (priority 2012, dated 2017)
